Our source for the melting point values is patent publication US6573274B1, “Sulfonamide compounds and uses thereof as medicines” (Fujisawa Pharmaceutical Co. Ltd., priority 1998, dated 2003).

The structures appear in SMILES notation. Counter-ions that a name gives are not always drawn. Bounds are passed on as bounds.

In turn, `CCCCCS(=O)(=O)NC(=O)c1ccc2nc(C)n(Cc3ccc(N(C)C(=O)OCC)cc3Cl)c2n1` [Example 145, 3-(4-(N-(ethoxycarbonyl)-N-methylamino)-2-chlorobenzyl)-2-methyl-5-(1-pentanesulfonylcarbamoyl)-3H-imidazo[4,5-b]pyridine] registered a melting point of 149 to 150 °C.

Take `CCC/C=C/S(=O)(=O)NC(=O)c1ccc2nc(C)n(Cc3ncc(NC(=O)OC(C)(C)C)cc3Cl)c2n1` (as salt: sodium) [Example 130, 3-[(5-(N-(tert-butoxycarbonyl)amino)-3-chloropyridin-2-yl)methyl]-2-methyl-5-((E)-1-penten-1-ylsulfonylcarbamoyl)-3H-imidazo[4,5-b]pyridine]: the melting point lay within 202 to 204 °C.

Compound `CCCCS(=O)(=O)NC(=O)c1ccc2nc(C)n(Cc3ccc(OC(C)C)cc3Cl)c2n1` [Example 15, 5-(1-butanesulfonylcarbamoyl)-3-(2-chloro-4-isopropoxybenzyl)-2-methyl-3H-imidazo-[4,5-b]pyridine] registered a melting point of 138 to 141 °C.

As for `Cc1cc(C(=O)NS(=O)(=O)c2ccc(Br)s2)nc2c1nc(C)n2Cc1ccc(-c2ccccc2)cc1Cl.[Na]`, the melting point is over 250 °C.

Compound `CCCCS(=O)(=O)NC(=O)c1cc(C)c2nc(C)n(Cc3ccc(OCCC)cc3Cl)c2n1` [Example 36, 5-(1-butanesulfonylcarbamoyl)-3-[2-chloro-4-(1-propoxy)benzyl]-2,7-dimethyl-3H-imidazo[4,5-b]pyridine] registered a melting point of 164 to 166 °C.

The compound `CCCCCS(=O)(=O)NC(=O)c1ccc2nc(C)n(Cc3ccc(N(C)CCC)cc3Cl)c2n1` [Example 44, 3-(2-chloro-4-(methyl-(1-propyl)amino)benzyl)-2-methyl-5-(1-pentanesulfonylcarbamoyl)-3H-imidazo[4,5-b]pyridine] came in with a melting point of 129 to 130 °C.

Compound `CCCCCS(=O)(=O)NC(=O)c1ccc2nc(C)n(Cc3ccc(-n4cccc4)cc3Cl)c2n1` [Example 83, 3-(2-chloro-4-(1-pyrrolyl)benzyl)-2-methyl-5-(1-pentanesulfonylcarbamoyl)-3H-imidazo[4,5-b]pyridine] gave a melting point of 171 to 172 °C.

In the case of `CCCNS(=O)(=O)NC(=O)c1ccc2nc(C)n(Cc3ccc(-c4ccccc4)cc3Cl)c2n1` [Example 60, 3-(2-chloro-4-phenylbenzyl)-2-methyl-5-[(1-propylaminosulfonyl)carbamoyl]-3H-imidazo[4,5-b]pyridine], the melting point was in the range of 208 to 209 °C.

In the case of `CCCCCS(=O)(=O)NC(=O)c1ccc2nc(C)n(Cc3ccc(N(C)C(=O)OCc4ccccc4)cc3Cl)c2n1` [Example 146, 3-(4-(N-(benzyloxycarbonyl)-N-methylamino)-2-chlorobenzyl)-2-methyl-5-(1-pentanesulfonylcarbamoyl)-3H-imidazo[4,5-b]pyridine], the melting point lay in the range of 120 to 121 °C.

Compound `CCCCCOc1ccc(Cn2c(CC)nc3ccc(C(=O)NS(=O)(=O)CCCC)nc32)c(Cl)c1` [Example 66, 5-(1-butanesulfonylcarbamoyl)-3-(2-chloro-4-(1-pentyloxy)benzyl)-2-ethyl-3H-imidazo[4,5-b]pyridine] returned a melting point of 140 to 142 °C.

The compound `CCCCS(=O)(=O)NC(=O)c1ccc2nc(C)n(Cc3ccc(-c4ccco4)cc3Cl)c2n1` [Example 69, 5-(1-butanesulfonylcarbamoyl)-3-[2-chloro-4-(2-furyl)benzyl]-2-methyl-3H-imidazo[4,5-b]pyridine] gave a melting point of 208 to 209 °C.

`CCCCCS(=O)(=O)NC(=O)c1ccc2nc(C)n(Cc3ccc(-c4ccc(Cl)s4)cc3Cl)c2n1.[Na]` gave a melting point of over 250 °C.

On to `CCCCCOc1ccc(Cn2c(C)nc3ccc(C(=O)NS(=O)(=O)c4ccc(Br)s4)nc32)c(Cl)c1` [Example 23, 5-[(5-bromothiophen-2-yl)sulfonylcarbamoyl]-3-[2-chloro-4-(1-pentyloxy)benzyl]-2-methyl-3H-imidazo[4,5-b]pyridine], for which the melting point lay in the range of 156 to 157 °C.
